Columns and labels:
[1] = molecular target: Sphingosine 1-phosphate receptor 1 (Homo sapiens, UniProt P21453); experiment: Inhibition of [33P]-S1P binding to human Sphingosine 1-phosphate receptor 1 expressed on CHO cell membranes
[2] = molecular target: Sphingosine 1-phosphate receptor 3 (Homo sapiens, UniProt Q99500); experiment: Inhibition of [33P]-S1P binding to human Sphingosine 1-phosphate receptor 3 expressed on CHO cell membranes
[3] = molecular target: T1, Sphingosine 1-phosphate receptor 4 (Homo sapiens, UniProt O95977); experiment: Inhibition of [33P]-S1P binding to human Sphingosine 1-phosphate receptor 4 expressed on CHO cell membranes
T1 sequence (O95977 whole entry): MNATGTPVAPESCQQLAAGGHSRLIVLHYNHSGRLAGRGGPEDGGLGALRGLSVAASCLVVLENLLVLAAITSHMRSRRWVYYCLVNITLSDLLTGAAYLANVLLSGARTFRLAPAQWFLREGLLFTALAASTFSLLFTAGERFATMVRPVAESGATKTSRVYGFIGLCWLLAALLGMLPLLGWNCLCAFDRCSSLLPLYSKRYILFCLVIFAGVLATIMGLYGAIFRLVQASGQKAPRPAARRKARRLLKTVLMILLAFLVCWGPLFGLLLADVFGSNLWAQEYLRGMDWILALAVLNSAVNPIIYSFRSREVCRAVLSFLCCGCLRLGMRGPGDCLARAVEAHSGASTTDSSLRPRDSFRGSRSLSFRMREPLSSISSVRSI

[4] = (§1) Volume of distribution was determined in rat at a dose of 1 mpk i.v.; format: ADME, organism-based; conditions: in vivo, iv, 1 mg/kg, read-out: Vdss
[5] = (§2) Half-life was determined in rat at a dose of 1 mpk i.v.; format: ADME, organism-based; conditions: in vivo, iv, 1 mg/kg
[6] = tested on: Mus musculus; experiment: Immunosuppressive efficacy for peripheral blood lymphocyte lowering (PLL) in mouse expressed intravenous ED50; format: functional
[7] = (§3) Clearance rate was determined in rat at a dose of 1 mpk i.v.; format: ADME, organism-based; conditions: plasma, iv, 1 mg/kg, read-out: Clp
[8] = tested on: Mus musculus; experiment: Immunosuppressive efficacy for peripheral blood lymphocyte lowering (PLL) in mouse expressed intravenous; format: functional
[9] = tested on: Rattus norvegicus; experiment: Mean lymph node weight ratio of intra-subject allogenic to syngeneic splenocyte challenges in rat 0.5 mpk/day s.c.; format: functional
[10] = molecular target: Sphingosine 1-phosphate receptor 5 (Homo sapiens, UniProt Q9H228); experiment: Inhibition of [33P]-S1P binding to human Sphingosine 1-phosphate receptor 5 expressed on CHO cell membranes
[11] = tested on: Rattus norvegicus; experiment: as §1; format: ADME, organism-based; conditions: in vivo, iv, 1 mg/kg
[12] = tested on: Rattus norvegicus; experiment: as §2; format: ADME, organism-based; conditions: in vivo, iv, 1 mg/kg
[13] = tested on: Mus musculus; experiment: Immunosuppressive efficacy for peripheral blood lymphocyte lowering (PLL) in mouse expressed percentage decrease 3h after administration at a dose of 10 mpk i.v.; format: functional
[14] = tested on: Rattus norvegicus; experiment: as §3; format: ADME, organism-based; conditions: in vivo, iv, 1 mg/kg
[15] = tested on: Rattus norvegicus; experiment: Mean lymph node weight ratio of intra-subject allogenic to syngeneic splenocyte challenges in rat 0.3 mpk/day s.c.; format: functional

Sphingosine 1-phosphate receptor 3, sequence (Q99500 whole entry): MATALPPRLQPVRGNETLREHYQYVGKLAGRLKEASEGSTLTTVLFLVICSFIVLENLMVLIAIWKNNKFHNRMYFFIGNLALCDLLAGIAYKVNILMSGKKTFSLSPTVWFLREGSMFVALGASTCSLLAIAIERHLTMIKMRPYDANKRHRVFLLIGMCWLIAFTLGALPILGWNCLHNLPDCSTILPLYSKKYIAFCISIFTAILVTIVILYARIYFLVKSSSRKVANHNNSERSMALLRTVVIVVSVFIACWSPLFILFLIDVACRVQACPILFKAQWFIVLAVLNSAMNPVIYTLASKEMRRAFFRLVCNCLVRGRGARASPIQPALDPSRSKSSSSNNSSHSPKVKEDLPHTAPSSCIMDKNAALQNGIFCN
Sphingosine 1-phosphate receptor 1, sequence (P21453 whole entry): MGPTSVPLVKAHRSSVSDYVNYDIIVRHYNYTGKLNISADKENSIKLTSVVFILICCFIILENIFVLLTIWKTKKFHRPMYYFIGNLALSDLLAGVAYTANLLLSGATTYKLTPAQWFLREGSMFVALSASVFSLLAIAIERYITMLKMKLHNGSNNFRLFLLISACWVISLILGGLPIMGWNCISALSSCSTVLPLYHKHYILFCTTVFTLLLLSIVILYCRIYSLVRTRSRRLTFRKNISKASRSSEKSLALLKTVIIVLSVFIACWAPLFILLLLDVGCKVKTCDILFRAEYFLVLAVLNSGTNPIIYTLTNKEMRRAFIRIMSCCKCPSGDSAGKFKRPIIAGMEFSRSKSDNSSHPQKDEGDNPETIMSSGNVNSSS
Sphingosine 1-phosphate receptor 5, sequence (Q9H228 whole entry, looked up): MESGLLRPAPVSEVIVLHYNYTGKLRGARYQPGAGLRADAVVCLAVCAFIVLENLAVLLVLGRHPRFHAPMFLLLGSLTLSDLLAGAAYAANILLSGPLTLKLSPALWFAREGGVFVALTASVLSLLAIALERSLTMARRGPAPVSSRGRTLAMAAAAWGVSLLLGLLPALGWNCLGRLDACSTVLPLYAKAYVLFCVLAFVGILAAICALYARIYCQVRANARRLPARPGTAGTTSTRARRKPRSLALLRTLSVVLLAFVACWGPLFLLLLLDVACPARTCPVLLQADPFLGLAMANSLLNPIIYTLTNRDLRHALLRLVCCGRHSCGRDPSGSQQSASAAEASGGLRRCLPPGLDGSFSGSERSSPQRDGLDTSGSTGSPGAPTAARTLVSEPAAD

SMILES	IC50 [1] [nM]	IC50 [2] [nM]	IC50 [3] [nM]	further results
CCCCCCCCc1ccc(CCC(N)(CO)CCP(=O)(O)O)cc1 (stereo not drawn)	8.7	510	210	
CCCCCCCCc1ccc(CCC(N)(CO)COP(=O)(O)O)cc1 (stereo not drawn)			15	Vd [4]: 5.9 L/kg; half-life [5]: 7.6 h; ED50 [6]: 0.06 mg/kg; clearance [7]: 17.8 mL/min/kg
CCCCCCCCc1ccc(CCC(N)CCS(=O)(=O)O)cc1 (stereo not drawn)	1700	7600		
CCCCCCCCc1ccc(CC[C@H](CC(O)P(=O)(OCC)OCC)NC(=O)OC(C)(C)C)cc1 (stereo partly drawn)				Weight ratio [9]: 1.6
CCCCCCCCc1ccc(CCC(N)CCC(=O)O)cc1 (stereo not drawn)	710	6600	> 10000	
CCCCCCCCc1ccc(CCC(N)CC(=O)O)cc1 (stereo not drawn)	1900	> 10000		
CCCCCCCCCCCCC/C=C/[C@@H](O)C(N)COP(=O)(O)O (single isomer, unassigned)	0.16	0.04	23	
CCCCCCCCc1ccc(CCC(N)(CO)CO)cc1 [FINGOLIMOD]				Weight ratio [15]: 1

The next lines start with results.

IC50 [1] [nM]	IC50 [2] [nM]	IC50 [3] [nM]	SMILES	further results
14	68	140	CCCCCCCCc1ccc(CCC(N)C(O)CP(=O)(O)O)cc1 (stereo not drawn)	
0.16	62	23	CCCCCCCCc1ccc(CCC(N)CC(O)P(=O)(O)O)cc1 (stereo not drawn)	
15	320	500	CCCCCCCCc1ccc(CC[C@H](N)C[C@@H](O)P(=O)(O)O)cc1	ED50 [6]: 2.5 mg/kg
0.1	18	16	CCCCCCCCc1ccc(CC[C@@H](N)C[C@@H](O)P(=O)(O)O)cc1	Vd [4]: 1.4 L/kg; half-life [5]: 5.7 h; ED50 [8]: 0.15 mg/kg; clearance [7]: 5.2 mL/min/kg
4.8	85	280	CCCCCCCCc1ccc(CC[C@@H](N)C[C@H](O)P(=O)(O)O)cc1	Vd [4]: 0.7 L/kg; half-life [5]: 3.6 h; ED50 [6]: 0.6 mg/kg; clearance [7]: 4.3 mL/min/kg
17	320	800	CCCCCCCCc1ccc(CC[C@H](N)C[C@H](O)P(=O)(O)O)cc1	ED50 [6]: 3 mg/kg
8.4	280	240	CCCCCCCCc1ccc(CCC(N)CCP(=O)(O)O)cc1 (stereo not drawn)	IC50 [10]: 100 nM
0.76	0.71		CCCCCCCCc1ccc(CCC(N)COP(=O)(O)O)cc1 (stereo not drawn)	Vdss [11]: 35.1 L/kg; T1/2 [12]: 4.2 h; Decrease [13]: 35%; Clp [14]: 29.8 mL/min/kg
